One may read the GI50 as the concentration that inhibits growth by half. Broadly, the TGI is the concentration at which net growth stops.

Eight compounds from PubChem BioAssay (NCI) can be followed below.

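Dose response: 5 concentrations. Exposure: 48 h. Format: 96-well plates. Endpoint: linear interpolation; highest concentration if not reached. GI50 marks 50% less growth. The concentration for full growth arrest is given as TGI.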

Among the test systems are MOLT-4 leukemia; RXF 393 renal; ACHN renal; LOX IMVI melanoma; NCI-H460 lung; SN12C renal; TK-10 renal; NCI-H226 lung; HCT-116 colon; HOP-62 NSCLC.
Holding throughout (assay): DTP human tumour cell line panel, 48 h

Take `COC(=O)c1c[nH]c2cc(OC(C)C)c(OC(C)C)cc2c1=O`: the GI50 in the experiment with MOLT-4 leukemia, in the experiment with RXF 393 renal, in the experiment with ACHN renal, in the experiment with LOX IMVI melanoma, with NCI-H460 lung and in the experiment with SN12C renal was greater than 100 µM each time. Also, the GI50 is greater than 100 µM in the experiment with TK-10 renal, greater than 100 µM in the experiment on NCI-H226 lung, greater than 100 µM in the experiment on HCT-116 colon and 79.6 µM in the experiment on HOP-62 NSCLC. The TGI in the experiment with MOLT-4 leukemia, in the experiment on RXF 393 renal, with ACHN renal, in the experiment with LOX IMVI melanoma, in the experiment with NCI-H460 lung and in the experiment on SN12C renal was greater than 100 µM each time. Besides, the TGI in the experiment on TK-10 renal, with NCI-H226 lung, in the experiment with HCT-116 colon and with HOP-62 NSCLC was greater than 100 µM each time.
For the compound `O=C1/C(=C\c2ccc(F)cc2)CN(C(=O)c2ccccc2F)C/C1=C\c1ccc(F)cc1`, the GI50 with MOLT-4 leukemia is 1.72 µM; in the experiment on RXF 393 renal, 1.78 µM; with ACHN renal it was 1.61 µM; in the experiment with LOX IMVI melanoma, 0.28 µM; in the experiment on NCI-H460 lung, 2.51 µM; in the experiment with SN12C renal, 1.68 µM. The GI50 in the experiment on TK-10 renal was 1.97 µM; with NCI-H226 lung, 3.41 µM; in the experiment with HCT-116 colon, 0.228 µM; with HOP-62 NSCLC it was 2.04 µM. Also, the TGI in the experiment with MOLT-4 leukemia was found to be 7.49 µM; with RXF 393 renal, 3.54 µM; in the experiment with ACHN renal it was 3.6 µM; in the experiment on LOX IMVI melanoma it was 0.957 µM; in the experiment with NCI-H460 lung, 6.71 µM; in the experiment on SN12C renal, 3.37 µM. The TGI was 4.27 µM in the experiment with TK-10 renal, 12.8 µM with NCI-H226 lung, 0.571 µM with HCT-116 colon and 4.66 µM in the experiment with HOP-62 NSCLC.
For `Cc1sc(C(=O)c2cncnc2N[C@@H]2C[C@H](COS(N)(=O)=O)[C@@H](O)C2)cc1[C@@H]1NCCc2ccc(Cl)cc21`, the GI50 is 0.59 µM in the experiment with MOLT-4 leukemia; 6.35 µM in the experiment on RXF 393 renal; 11.8 µM with ACHN renal; 0.0959 µM in the experiment with LOX IMVI melanoma; 0.466 µM in the experiment on NCI-H460 lung; 9.85 µM in the experiment with SN12C renal. Moreover, the GI50 is 12.9 µM with TK-10 renal, 10.3 µM in the experiment on NCI-H226 lung, 1.31 µM in the experiment on HCT-116 colon and 12.9 µM in the experiment on HOP-62 NSCLC. Moreover, the TGI in the experiment on MOLT-4 leukemia came to 23.4 µM; with RXF 393 renal, 22 µM; with ACHN renal it was 25.7 µM; with LOX IMVI melanoma, 15.6 µM; in the experiment with NCI-H460 lung it was 20.6 µM; in the experiment on SN12C renal it was 24.5 µM. Besides, the total growth inhibition concentration (TGI) in the experiment with TK-10 renal is 26.8 µM; in the experiment with NCI-H226 lung, 25.7 µM; in the experiment with HCT-116 colon it was 22.6 µM; with HOP-62 NSCLC, 28.1 µM.
As for `O=C(Nc1ccncc1)C(=O)c1cn(S(=O)(=O)c2cccc(Cl)c2)c2ccccc12`, the GI50 is 5.55 µM with MOLT-4 leukemia; 4.34 µM in the experiment with RXF 393 renal; 7.58 µM in the experiment on ACHN renal; 4.72 µM in the experiment with LOX IMVI melanoma; 20 µM in the experiment with NCI-H460 lung; 13 µM with SN12C renal. For the same compound, the GI50 is 23.5 µM in the experiment with TK-10 renal, 13.6 µM in the experiment on NCI-H226 lung, 3.1 µM in the experiment on HCT-116 colon and 7.26 µM in the experiment on HOP-62 NSCLC. Also, the TGI is greater than 100 µM in the experiment on MOLT-4 leukemia; 21.2 µM with RXF 393 renal; 57.1 µM with ACHN renal; greater than 100 µM in the experiment with LOX IMVI melanoma; greater than 100 µM in the experiment on NCI-H460 lung; greater than 100 µM in the experiment with SN12C renal. The TGI with TK-10 renal is 75.9 µM; in the experiment with NCI-H226 lung it was greater than 100 µM; in the experiment with HCT-116 colon, 86.8 µM; in the experiment on HOP-62 NSCLC it was 48.1 µM.
Turning to `CC12OC(CC(O)C1O)n1c3ccccc3c3c4c(c5c6ccccc6n2c5c31)C(=O)N(CCN1CCOCC1)C4=O` (stereo not given), the GI50 was 0.23 µM with MOLT-4 leukemia; 1.31 µM in the experiment with RXF 393 renal; 0.526 µM with ACHN renal; 0.425 µM in the experiment with LOX IMVI melanoma; 0.205 µM in the experiment with NCI-H460 lung; 1.02 µM in the experiment on SN12C renal. For the same compound, the GI50 with TK-10 renal is 0.953 µM; in the experiment with NCI-H226 lung, 1.11 µM; with HCT-116 colon, 0.625 µM; with HOP-62 NSCLC, 1.27 µM. For the same compound, the TGI in the experiment on MOLT-4 leukemia is 4.26 µM; with RXF 393 renal it was 5.03 µM; with ACHN renal it was 1.69 µM; in the experiment on LOX IMVI melanoma it was 1.29 µM; in the experiment on NCI-H460 lung, 1.7 µM; with SN12C renal, 6.12 µM. The concentration for total growth inhibition (TGI) in the experiment on TK-10 renal came out at 5.48 µM; in the experiment with NCI-H226 lung, 4.01 µM; in the experiment on HCT-116 colon, 5.51 µM; in the experiment with HOP-62 NSCLC, 4.22 µM.
With `CCN1CCN(c2nc(C)cc(NCc3cc(Nc4ccnc5cc(Cl)ccc45)ccc3F)n2)CC1`, the GI50 with MOLT-4 leukemia is 2.44 µM; in the experiment on RXF 393 renal, 1.27 µM; in the experiment on ACHN renal it was 2.47 µM; in the experiment with LOX IMVI melanoma it was 1.02 µM; in the experiment on NCI-H460 lung it was 1.56 µM; in the experiment with SN12C renal it was 1.94 µM. Besides, the GI50 in the experiment with TK-10 renal was 2.39 µM; in the experiment with NCI-H226 lung it was 2.82 µM; in the experiment with HCT-116 colon, 1.01 µM; with HOP-62 NSCLC, 1.58 µM. Besides, the TGI turned out to be 16.6 µM in the experiment with MOLT-4 leukemia; 3 µM in the experiment with RXF 393 renal; 7.4 µM in the experiment on ACHN renal; 2.34 µM in the experiment with LOX IMVI melanoma; 3.67 µM with NCI-H460 lung; 6.41 µM in the experiment with SN12C renal. For the same compound, the TGI in the experiment on TK-10 renal was found to be 6.04 µM; with NCI-H226 lung, 10.3 µM; in the experiment on HCT-116 colon it was 2.75 µM; in the experiment with HOP-62 NSCLC it was 4.57 µM.
For the compound `O=C(O)c1ccc2c(c1)C(=O)N(c1ccc(S(=O)(=O)c3ccc(N4C(=O)c5ccc(C(=O)O)cc5C4=O)cc3)cc1)C2=O`, the TGI in the experiment with MOLT-4 leukemia, in the experiment on RXF 393 renal, in the experiment on ACHN renal, in the experiment on LOX IMVI melanoma, in the experiment on NCI-H460 lung and in the experiment on SN12C renal was greater than 100 µM throughout. Further, the TGI in the experiment on TK-10 renal, in the experiment with NCI-H226 lung, with HCT-116 colon and in the experiment with HOP-62 NSCLC was greater than 100 µM each time.
In the case of `C=C1C(=O)O[C@H]2[C@H]1CC/C(COC(=O)c1cccnc1N)=C\CC[C@@]1(C)O[C@@H]21`, the GI50 in the experiment with MOLT-4 leukemia is 0.65 µM; with RXF 393 renal, 1.53 µM; in the experiment with ACHN renal it was 1.03 µM; in the experiment on LOX IMVI melanoma, 3.18 µM; with NCI-H460 lung, 3.09 µM; in the experiment on SN12C renal, 2.01 µM. Besides, the GI50 in the experiment with TK-10 renal was 2.59 µM; in the experiment on NCI-H226 lung it was 10.1 µM; with HCT-116 colon, 0.36 µM; in the experiment with HOP-62 NSCLC, 4.89 µM. For the same compound, the TGI in the experiment with MOLT-4 leukemia amounted to 6.46 µM; in the experiment on RXF 393 renal, 3.78 µM; in the experiment on ACHN renal it was 10.3 µM; with LOX IMVI melanoma it was 14 µM; in the experiment with NCI-H460 lung, 10.8 µM; in the experiment with SN12C renal, 10.9 µM. Moreover, the TGI with TK-10 renal stood at 10.4 µM; in the experiment on NCI-H226 lung it was 24.4 µM; with HCT-116 colon, 1.26 µM; with HOP-62 NSCLC, 18.6 µM.
